Test results from patent publication EP0538469A1, “SULFONANILIDE DERIVATIVE AND MEDICINE” (NIPPON SHINYAKU COMPANY, LIMITED, priority 1990, dated 1991).
Read-outs that look alike come from different tables or passages of the source. Marks after values point to notes of the source that are not given here.

Columns and labels:
[1] = tested on: smooth muscle of urethra; assay: Contraction of isolated smooth muscle of urethra (Magnus vessel, cumulative concentration/response curves); type: cell-based, rabbits; conditions: for EC50: Oryctolagus cuniculus, female rabbit urethra smooth muscle, contraction
Method: (§1) The experiment was conducted using female rabbits of 2 to 3.5 kg body weight.
(§2) The animals were killed by draining the blood out under anesthetizing with pentobarbital (30 mg/kg, by intravenous injection) and smooth muscle of urethra and femoral artery were excised. Each of the excised samples was placed in a Magnus vessel filled with a modified Krebs solution (at 37°C; under mixed gas) and both smooth muscle of urethra and femoral artery were suspended with 1 g load.
(§3) The drug to be tested was accumulated to contract the samples whereby the concentration/response curves were obtained wherefrom ED₅₀ (M) and pD₂ were calculated and the selectivity to urethra was determined.

[2] = tested on: mice (ddY-strain, male); assay: Acute toxicity, oral, mice; type: in vivo; conditions: observed two weeks
Method: (§4) Numbers of mice (ddY-strain, male, 6-8 weeks age) and rats (SD strain, male, 6-7 weeks age) in each group were 4 and 6, respectively.
(§5) The drug to be tested was orally administered at the dose of 10 ml/kg using an oral probe to the animals which were fasted since one day before (for 16-18 hours). After giving the drug, the animals were returned to the state where both feed and water were available and the general symptom and the dead cases, if any, were checked for two weeks. The drug was suspended in physiological saline solution containing 0.5% of methylcellulose (0.5% MC) and the suspension was given to the animals by oral route.

[3] = tested on: femoral artery; assay: Contraction of isolated femoral artery (Magnus vessel, cumulative concentration/response curves); type: cell-based, rabbits; conditions: Oryctolagus cuniculus, female rabbit femoral artery, contraction
Method: as §1, §2, §3

[4] = tested on: male rabbits; assay: Action to intra urethral pressure and blood pressure, administration to duodenum; type: in vivo
Method: The experiment was conducted using male rabbits of body weight of 1.4-3.1 kg under fasted condition. The animals were fixed at backs under uretrane(1.2g/kg s.c.) anesthesia, abdomen was subjected to a midline incision and bladder was exposed. In order to prevent the urine stored in the bladder on the intra urethral pressure, the urine in the bladder was compulsorily discharged out of the body. After that, a catheter was inserted into both ureters and the urine discharged from kidney was introduced outside.
The intra urethral pressure(IUP) at the urethra tract of about 0.5-1 cm distance from the neck of the bladder was measured using a microtip transducer transducer equipped with a baloon (filled with physiological saline solution) at the top end. Further, polyethylene tube was inserted into femoral artery to measure the blood pressure (BP).
Abdomen right above stomach was subjected to a midline incision and, after that, the drug to be tested suspended in 0.5% methyl cellulose (0.5% MC) was administered at the dose of 0.5ml/kg to the duodenum. […] The above administration to duodenum corresponded to oral administration as the administration into digestive organ in anethetized animals.

[5] = tested on: rats (SD strain, male); assay: Acute toxicity, oral, rats; type: in vivo; conditions: observed two weeks
Method: as §4, §5

[6] = Acute toxicity, oral, rats; type: in vivo; conditions: rat, in vivo, SD rats, read-out: Rats LD₅₀
Method: as §4, §5

[7] = 1 mg/kg i.d., 10 min after administration
[8] = 1 mg/kg i.d., 20 min after administration
[9] = 1 mg/kg i.d., 30 min after administration
[10] = 1 mg/kg i.d., 60 min after administration
[11] = 1 mg/kg i.d., 90 min after administration
[12] = 1 mg/kg i.d., 120 min after administration
[13] = 1 mg/kg i.d., 180 min after administration
[14] = 3 mg/kg i.d., 10 min after administration
[15] = 3 mg/kg i.d., 20 min after administration
[16] = 3 mg/kg i.d., 30 min after administration
[17] = 3 mg/kg i.d., 60 min after administration
[18] = 3 mg/kg i.d., 90 min after administration
[19] = 3 mg/kg i.d., 120 min after administration
[20] = 3 mg/kg i.d., 180 min after administration

**Q.** Which results are given for `CNCC(O)c1cccc(NS(C)(=O)=O)c1` (stereo not shown) [Amidephrine, reference compound]?
**A.** Selectivity (B/A) ([1]; ED₅₀ femoral artery / ED₅₀ urethra): 0.18; EC50 ([1]; read-out: ED₅₀ Urethra(A)): 10.8 µM; EC50 ([1]; read-out: pD₂ Urethra(A)): 10.7 µM; Mice Dead/ Total ([2]; 1000 mg/kg): 0 / 4; Mice Dead/ Total ([2]; 3000 mg/kg): 3 / 4; EC50 ([3]; read-out: ED₅₀ Femoral Artery(B)): 1.96 µM; EC50 ([3]; read-out: pD₂ Femoral Artery(B)): 1.95 µM; Change(%) BP [4, 7]: 2.4%; Change(%) BP [4, 8]: -0.1%; Change(%) BP [4, 9]: 2.2%; Change(%) BP [4, 10]: 7.2* %; Change(%) BP [4, 11]: 14.3** %; Change(%) BP [4, 12]: 10.3* %; Change(%) BP [4, 13]: 3.7** %; Change(%) BP [4, 14]: 5.8%; Change(%) BP [4, 15]: 3.7%; Change(%) BP [4, 16]: 4.1%; Change(%) BP [4, 17]: 20.7** %; Change(%) BP [4, 18]: 34.4** %; Change(%) BP [4, 19]: 39.1** %; Change(%) BP [4, 20]: 31.1** %; Change(%) IUP [4, 7]: 0.7%; Change(%) IUP [4, 8]: 0.6%; Change(%) IUP [4, 9]: 8.3%; Change(%) IUP [4, 10]: 47.6** %; Change(%) IUP [4, 11]: 56.8** %; Change(%) IUP [4, 12]: 46.1* %; Change(%) IUP [4, 13]: 32.1%; Change(%) IUP [4, 14]: -4.5%; Change(%) IUP [4, 15]: 15.9%; Change(%) IUP [4, 16]: 47.1** %; Change(%) IUP [4, 17]: 108.5** %; Change(%) IUP [4, 18]: 107.8** %; Change(%) IUP [4, 19]: 92.7** %; Change(%) IUP [4, 20]: 92.2** %; Rats Dead/ Total ([5]; 5 mg/kg): 0 / 6; Rats Dead/ Total ([5]; 10 mg/kg): 3 / 6; Rats Dead/ Total ([5]; 20 mg/kg): 4 / 6; Rats Dead/ Total ([5]; 30 mg/kg): 6 / 6; LD50 at 336 h [6]: 12.4 mg/kg
